Laboratory results published in ChEMBL document CHEMBL4433241, “Potential of ROCK Inhibitors as Treatment for Cardiovascular Diseases, Cancer, and More” (ACS Med Chem Lett, 2019).

Each molecule was assayed against Rho-associated protein kinase 2 (Homo sapiens, UniProt O75116) (assay: Inhibition of ROCK2 (unknown origin) using FITC-AHA-AKRRRLSSLRA-OH substrate and ATP).
Rho-associated protein kinase 2, sequence (O75116 whole entry): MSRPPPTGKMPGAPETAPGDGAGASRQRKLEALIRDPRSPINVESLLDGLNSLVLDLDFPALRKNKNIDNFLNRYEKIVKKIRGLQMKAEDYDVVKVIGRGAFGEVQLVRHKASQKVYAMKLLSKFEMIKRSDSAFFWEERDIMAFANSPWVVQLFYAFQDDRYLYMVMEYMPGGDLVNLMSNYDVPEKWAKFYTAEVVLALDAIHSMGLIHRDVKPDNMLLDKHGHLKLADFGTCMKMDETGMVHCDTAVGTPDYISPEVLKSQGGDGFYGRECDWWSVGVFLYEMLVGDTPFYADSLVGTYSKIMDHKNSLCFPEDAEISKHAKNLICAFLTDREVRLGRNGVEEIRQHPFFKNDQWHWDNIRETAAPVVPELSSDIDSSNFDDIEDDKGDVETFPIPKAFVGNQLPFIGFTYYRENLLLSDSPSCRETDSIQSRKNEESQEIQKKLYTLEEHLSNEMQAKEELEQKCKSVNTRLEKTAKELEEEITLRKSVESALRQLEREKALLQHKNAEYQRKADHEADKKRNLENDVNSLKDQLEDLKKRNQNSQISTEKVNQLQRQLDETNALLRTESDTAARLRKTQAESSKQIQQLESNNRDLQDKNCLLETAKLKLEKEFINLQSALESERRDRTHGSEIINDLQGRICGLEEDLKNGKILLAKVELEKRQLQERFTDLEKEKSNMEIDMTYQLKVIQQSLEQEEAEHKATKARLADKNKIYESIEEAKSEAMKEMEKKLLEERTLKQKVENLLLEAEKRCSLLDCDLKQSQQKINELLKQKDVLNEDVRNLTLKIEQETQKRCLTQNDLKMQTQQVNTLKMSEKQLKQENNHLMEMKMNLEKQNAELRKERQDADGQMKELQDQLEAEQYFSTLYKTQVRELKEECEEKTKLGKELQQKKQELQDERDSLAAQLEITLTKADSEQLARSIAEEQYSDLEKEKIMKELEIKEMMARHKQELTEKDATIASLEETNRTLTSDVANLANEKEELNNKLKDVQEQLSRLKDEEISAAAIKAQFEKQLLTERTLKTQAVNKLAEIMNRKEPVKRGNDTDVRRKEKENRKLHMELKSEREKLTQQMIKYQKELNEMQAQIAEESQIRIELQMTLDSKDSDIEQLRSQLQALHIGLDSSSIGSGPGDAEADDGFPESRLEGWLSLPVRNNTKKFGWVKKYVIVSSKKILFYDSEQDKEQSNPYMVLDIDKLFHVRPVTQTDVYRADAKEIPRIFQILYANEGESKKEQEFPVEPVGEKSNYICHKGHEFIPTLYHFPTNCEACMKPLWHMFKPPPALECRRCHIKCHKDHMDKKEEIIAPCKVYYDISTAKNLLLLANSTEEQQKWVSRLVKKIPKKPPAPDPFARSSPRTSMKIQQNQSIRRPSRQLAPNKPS

SMILES | IC50 [nM]
COc1cnc(NC2CC3(C2)CC(Oc2ncccc2C(N)=O)C3)c2cc(Cl)ccc12 (stereo not given) | 15
COc1ccc2c(NC3CC4(C3)CC(Oc3ncccc3C(N)=O)C4)nccc2c1 (stereo not given) | 17

The next lines start with the values.

IC50 [nM] | SMILES
1510 | N#Cc1cnc(NC2CC3(C2)CC(Oc2ncccc2C(N)=O)C3)nc1 (stereo not given)
76 | NC(=O)c1cccnc1OC1CC2(CC(Nc3nc4c(Cl)cccc4s3)C2)C1 (stereo not given)
62 | COc1ccc2ncnc(NC3CC4(C3)CC(Oc3ncccc3C(N)=O)C4)c2c1 (stereo not given)
